Patent US7399763B2, “8-hydroxy-1-oxo-tetrahydropyrrolopyrazine compounds useful as HIV integrase inhibitors” (Merck & Co., Inc., priority 2002, dated 2008)

tested on: HIV; assay: Assay for inhibition of HIV replication (acute HIV infection of T-lymphoid cells); assay type: cell-based; details: Human immunodeficiency virus 1, per Vacca et al. 1994
Protocol: Assay for Inhibition of HIV Replication
Assays for the inhibition of acute HIV infection of T-lymphoid cells were conducted in accordance with Vacca, J. P. et al., Proc. Natl. Acad. Sci. USA 1994, 91: 4096.

Question: For `CCOC(=O)c1cn2c(c1O)C(=O)N(Cc1ccccc1)CC2` [Example 1, Ethyl 2-benzyl-8-hydroxy-1-oxo-1,2,3,4-tetrahydropyrrolo[1,2-α]pyrazine-7-carboxylate], which IC95 is on record?
Answer: Its IC95 is no more than 20 µM.

Question: How did the IC95 turn out when `CCOC(=O)c1cn2c(c1O)C(=O)N(Cc1ccc(F)cc1)CC2` [Example 3, Ethyl 2-(4-fluorobenzyl)-8-hydroxy-1-oxo-1,2,3,4-tetrahydropyrrolo[1,2-]pyrazine-7-carboxylate] was run?
Answer: The IC95 was no more than 20 µM.

Question: `CNC(=O)c1cn2c(c1O)C(=O)N(Cc1ccc(F)cc1)CC2` [Example 5, 2-(4-Fluorobenzyl)-8-hydroxy-N-methyl-1-oxo-1,2,3,4-tetrahydropyrrolo[1,2α]pyrazine-7-carboxamide] was tested. Which IC95 did it give?
Answer: The IC95 was no more than 20 µM.

Question: How did the IC95 turn out when `CCNC(=O)c1cn2c(c1O)C(=O)N(Cc1ccc(F)cc1)CC2` [Example 6] was run?
Answer: The IC95 was no more than 20 µM.

Question: With `O=C(NC1CC1)c1cn2c(c1O)C(=O)N(Cc1ccc(F)cc1)CC2` [Example 7, 2-(4Fluorobenzyl)-8-hydroxy-N-cyclopropyl-1-oxo-1,2,3,4-tetrahydropyrrolo[1,2α]pyrazine-7-carboxamide] as the compound, how does the IC95 read?
Answer: The IC95 was no more than 20 µM.

Question: How did the IC95 turn out when `CCOC(=O)c1cn2c(c1O)C(=O)N(Cc1cccc(Cl)c1)CC2` [Example 8, Ethyl 2(3-chlorobenzyl)-8-hydroxy-1-oxo-1,2,3,4-tetrahydropyrrolo[1,2-α]pyrazine-7-carboxylate] was run?
Answer: Its IC95 is no more than 20 µM.

Question: With `CN1CCn2cc(C(=O)NCc3ccc(F)cc3)c(O)c2C1=O` [Example 10, N-(4-Fluorobenzyl)-8-hydroxy-2-methyl-1-oxo-1,2,3,4-tetrahydropyrrolo[1,2-α]pyrazine-7-carboxamide] as the compound, how does the IC95 read?
Answer: Its IC95 is no more than 20 µM.

Question: Which IC95 does the source give for `CNC(=O)c1cn2c(c1O)C(=O)N(Cc1ccc(Cl)cc1)CC2` [Example 16, 2-(4-Chlorobenzyl)-8-hydroxy-N-methyl-1-oxo-1,2,3,4-tetrahydropyrrolo[1,2-α]pyrazine-7-carboxamide] here?
Answer: Its IC95 is no more than 20 µM.

Question: `CNC(=O)c1cn2c(c1O)C(=O)N(Cc1ccc(F)c(F)c1)CC2` [Example 17, 2-(3,4-Difluorobenzyl)-8-hydroxy-N-methyl-1-oxo-1,2,3,4-tetrahydropyrrolo[1,2-α]pyrazine-7-carboxamide] was tested. Which IC95 did it give?
Answer: Its IC95 is no more than 20 µM.
